Laboratory results reported in patent US6410792B1, “Amide derivatives and methods for using the same as selective neuropeptide Y receptor antagonists” (Bayer Corporation, priority 1997, dated 2002).
Where two headings read alike, the source gives them in different places.

Tests used:
Human NPY1 receptor = molecular target: T1, Human NPY1 receptor (Homo sapiens, UniProt P25929); assay: Human NPY1 receptor binding assay ([125I]PYY, SK-N-MC cells)
T1 construct: host or cells: SK-N-MC cells
T1 sequence (P25929 1-384): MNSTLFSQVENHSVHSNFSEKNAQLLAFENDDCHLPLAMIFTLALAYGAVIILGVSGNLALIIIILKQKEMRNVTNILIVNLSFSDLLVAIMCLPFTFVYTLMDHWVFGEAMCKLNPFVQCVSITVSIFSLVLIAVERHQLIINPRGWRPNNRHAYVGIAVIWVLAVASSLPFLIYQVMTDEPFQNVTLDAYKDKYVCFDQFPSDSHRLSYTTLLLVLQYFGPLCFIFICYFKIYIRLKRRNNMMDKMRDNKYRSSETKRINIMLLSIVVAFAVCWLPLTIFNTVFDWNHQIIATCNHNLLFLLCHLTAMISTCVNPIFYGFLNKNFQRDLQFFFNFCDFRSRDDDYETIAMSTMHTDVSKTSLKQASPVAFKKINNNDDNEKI
In short: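 Whole-cell competition with ~50 pM [125I]PYY on SK-N-MC monolayers, 3 h at room temperature after 30 min preincubation in HEPES-buffered (pH 7.3) serum-free DMEM containing protease inhibitors. Gamma counting of cell lysates; 1 μM NPY gave nonspecific binding.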

Y2 receptor = molecular target: T2, Y2 receptor (Homo sapiens, UniProt P49146); assay: Y2 receptor binding assay ([125I]PYY, membrane protein); conditions: [125I]PYY, membrane protein; read-out: hNPY2 IC50
T2 sequence (P49146 1-381): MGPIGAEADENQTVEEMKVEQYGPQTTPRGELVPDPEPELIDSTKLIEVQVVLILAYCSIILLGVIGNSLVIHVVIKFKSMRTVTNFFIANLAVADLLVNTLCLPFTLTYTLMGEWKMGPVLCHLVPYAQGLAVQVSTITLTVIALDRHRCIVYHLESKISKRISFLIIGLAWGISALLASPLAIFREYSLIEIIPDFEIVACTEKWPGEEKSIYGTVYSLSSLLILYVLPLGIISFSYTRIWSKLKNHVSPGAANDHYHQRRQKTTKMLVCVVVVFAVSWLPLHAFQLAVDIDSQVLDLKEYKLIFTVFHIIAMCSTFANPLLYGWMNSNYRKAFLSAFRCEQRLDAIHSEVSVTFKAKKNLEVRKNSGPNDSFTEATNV
In short: (§1)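 Filtration binding with membrane protein and drug dilution, 2 h at room temperature with mixing, radioactivity counted by gamma or scintillation. Y2: 25 pM [125I]PYY in Krebs-Ringer bicarbonate pH 7.4 with 0.01% BSA, nonspecific by 1 μM NPY. Y4/PP1: 50 pM [125I]hPP in HEPES-buffered saline pH 7.4 with protease inhibitors and 0.3% BSA, nonspecific by 1 μM hPP.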

human Y4/PP1 receptor = human Y4/PP1 receptor (Homo sapiens, UniProt P50391); assay: Human Y4/PP1 receptor binding assay ([125I]human PP, membrane protein)
Sequence of human Y4/PP1 receptor (P50391 whole entry): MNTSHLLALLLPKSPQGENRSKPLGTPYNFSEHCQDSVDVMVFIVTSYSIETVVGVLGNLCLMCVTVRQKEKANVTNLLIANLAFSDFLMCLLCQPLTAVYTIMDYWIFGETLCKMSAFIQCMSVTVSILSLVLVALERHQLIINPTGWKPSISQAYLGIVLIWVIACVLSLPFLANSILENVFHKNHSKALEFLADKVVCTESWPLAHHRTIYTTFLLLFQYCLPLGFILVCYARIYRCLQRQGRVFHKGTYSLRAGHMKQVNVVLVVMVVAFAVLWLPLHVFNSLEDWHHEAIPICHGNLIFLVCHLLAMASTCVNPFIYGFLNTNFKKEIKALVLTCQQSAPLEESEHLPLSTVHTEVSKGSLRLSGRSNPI
In short: as §1

Human NPY5 receptor = molecular target: T3, Human NPY5 receptor (Homo sapiens, UniProt Q15761); assay: Human NPY5 receptor binding assay ([125I]PYY, membrane protein)
T3 sequence (Q15761 1-445): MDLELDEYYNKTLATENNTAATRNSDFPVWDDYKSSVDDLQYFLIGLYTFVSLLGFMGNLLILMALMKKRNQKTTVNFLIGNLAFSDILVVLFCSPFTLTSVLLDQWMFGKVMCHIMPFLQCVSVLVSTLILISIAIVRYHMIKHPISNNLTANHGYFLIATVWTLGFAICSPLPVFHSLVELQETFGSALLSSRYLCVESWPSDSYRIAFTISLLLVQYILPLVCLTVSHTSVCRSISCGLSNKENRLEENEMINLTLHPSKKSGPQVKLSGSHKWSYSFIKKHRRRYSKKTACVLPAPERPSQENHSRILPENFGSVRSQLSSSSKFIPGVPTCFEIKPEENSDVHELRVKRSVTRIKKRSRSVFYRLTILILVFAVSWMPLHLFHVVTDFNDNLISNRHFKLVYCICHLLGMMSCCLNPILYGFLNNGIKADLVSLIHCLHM
In short: (§2)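 Radioligand displacement: 75-100 pM [125I]PYY (porcine), membranes, drug dilution; 2 h, RT, mixing; 25 mM Tris pH 7.4 with 0.1% BSA, 0.5 mg/ml bacitracin. NSB 1 μM PYY. Filtration on PEI-treated GF/C, ice-cold buffer wash, gamma or scintillation counting.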

Rat NPY5 receptor [1] = molecular target: T4, Rat NPY5 receptor (Rattus norvegicus, UniProt Q63634); assay: Rat NPY5 cyclase assay (in vitro functional assay, forskolin-stimulated adenylate cyclase, cAMP); assay type: cell-based; conditions: 20 min; 10 μM; percentage of forskolin-stimulated adenylate cyclase; read-out: rNPY5 % FSAC (10 μM)
T4 sequence (Q63634 1-445): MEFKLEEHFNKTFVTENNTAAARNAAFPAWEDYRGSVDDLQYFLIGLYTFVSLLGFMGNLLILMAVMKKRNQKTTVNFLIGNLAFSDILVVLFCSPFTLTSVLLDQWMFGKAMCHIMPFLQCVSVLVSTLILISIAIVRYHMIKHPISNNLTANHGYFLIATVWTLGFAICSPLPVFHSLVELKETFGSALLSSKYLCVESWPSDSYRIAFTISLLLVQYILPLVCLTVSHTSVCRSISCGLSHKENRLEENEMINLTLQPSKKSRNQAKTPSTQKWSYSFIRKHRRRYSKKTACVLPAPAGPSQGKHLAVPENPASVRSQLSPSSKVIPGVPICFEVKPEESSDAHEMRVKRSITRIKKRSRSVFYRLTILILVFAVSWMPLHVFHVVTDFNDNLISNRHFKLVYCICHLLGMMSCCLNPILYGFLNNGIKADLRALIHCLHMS
In short: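 Cells stably expressing rat NPY5 receptor, in serum-free DMEM with 10 mM HEPES pH 7.4 and 1 mM IBMX, received […] plus compound for 20 min at 37 °C. Reactions were stopped by boiling. cAMP was quantified by radioimmunoassay and expressed as % of forskolin-stimulated adenylate cyclase.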

Rat NPY5 receptor [2] = molecular target: T4, Rat NPY5 receptor; assay: Rat NPY5 receptor binding assay ([125I]PYY, membrane protein)
In short: as §2

[3] = [125I]PYY, SK-N-MC cells, read-out: hNPYI IC50
[4] = [125I]human PP, membrane protein, read-out: hNPY4 IC50
[5] = [125I]PYY, read-out: hNPY5 IC50
[6] = [125I]PYY, read-out: rNPY5 IC50

SMILES | IC50 (Human NPY1 receptor; [3]) [nM] | IC50 (Y2 receptor) [nM] | IC50 (human Y4/PP1 receptor; [4]) [nM] | IC50 (Human NPY5 receptor; [5]) [nM] | activity at 10 µM (Rat NPY5 receptor [1]) [%] | melting point [°C] | IC50 (Rat NPY5 receptor [2]; [6]) [nM] | IC50 (Human NPY5 receptor; hNPY5 IC50, [125I]PYY) [nM] | IC50 (Rat NPY5 receptor [2]; rNPY5 IC50, [125I]PYY) [nM] | IC50 (Human NPY1 receptor) [nM] | IC50 (human Y4/PP1 receptor) [nM]
O=C(CN1CCC(n2c(=O)[nH]c3ccccc32)CC1)Nc1ccc(C2CCCCC2)cc1 [Compound 251, N-(4-Cyclohexyl-phenyl)-2-[4-(2-oxo-2,3-dihydrobenzoimidazol-1-yl)-piperidin-1-yl]-acetamide] | > 5000 | > 5000 | > 5000 | 4 | 92 | 130 to 132 |  |  |  |  | 
CCCc1ccc(NC(=O)CN2CCC(n3c(=O)[nH]c4ccccc43)CC2)cc1 [Compound 253, 2-[4-(2-Oxo-2,3-dihydro-benzoimidazol-1-yl)-piperidin-1-yl]-N-(4-propyl-phenyl)-acetamide] | > 5000 | > 5000 | > 5000 | 63 | 99 | 116 to 117 | 50 |  |  |  | 
CCCCc1ccc(NC(=O)CN2CCC(n3c(=O)[nH]c4ccccc43)CC2)cc1 [Compound 254, N-(4-Butyl-phenyl)-2-[4-(2-oxo-2,3-dihydro-benzoimidazol-1-yl)-piperidin-1-yl]-acetamide] | > 5000 | > 5000 | > 5000 | 43 | 103 | 130 to 131 |  |  |  |  | 
CCCCCc1ccc(NC(=O)CN2CCC(n3c(=O)[nH]c4ccccc43)CC2)cc1 [Compound 255, 2-[4-(2-Oxo-2,3-dihydro-benzoimidazol-1-yl)-piperidin-1-yl]-N-(4-pentyl-phenyl)-acetamide] | > 5000 | > 5000 | > 5000 | 74 | 95 | 127 to 128 |  |  |  |  | 
CCCCCCc1ccc(NC(=O)CN2CCC(n3c(=O)[nH]c4ccccc43)CC2)cc1 [Compound 256, N-(4-Hexyl-phenyl)-2-[4-(2-oxo-2,3-dihydro-benzoimidazol-1-yl)-piperidin-1-yl]-acetamide] | > 5000 | > 5000 | > 5000 | 120 | 92 | 128 to 129 |  |  |  |  | 
CC(C)c1ccc(NC(=O)CN2CCC(n3c(=O)[nH]c4ccccc43)CC2)cc1 [Compound 257, N-(4-Isopropyl-phenyl)-2-[4-(2-oxo-2,3-dihydro-benzoimidazol-1-yl)-piperidin-1-yl]-acetamide] | > 5000 | > 5000 | > 5000 | 110 | 88 | 133 to 134 |  |  |  |  | 
O=C(CN1CCC(n2c(=O)[nH]c3ccccc32)CC1)Nc1ccc(-c2ccc(F)cc2)cc1 [Compound 259, N-(4′-Fluoro-biphenyl-4-yl)-2-[4-(2-oxo-2,3-dihydro-benzoimidazol-1-yl)-piperidin-1-yl]-acetamide] | > 5000 | > 5000 | > 5000 | 150 | 101 | 228 to 229 | 87 |  |  |  | 
O=C(CN1CCC(n2c(=O)[nH]c3ccccc32)CC1)Nc1ccc(-c2ccccc2)cc1 [Compound 275, N-Biphenyl-4-yl-2-[4-(2-oxo-2,3-dihydro-benzoimidazol-1-yl)-piperidin-1-yl]-acetamide] | > 5000 | > 5000 | > 5000 | 42 | 103 | 180 to 181 | 19 |  |  |  | 
CC(=O)NC1CCN(CC(=O)Nc2ccc(C3CCCCC3)cc2)C1 (stereo not drawn) [Compound 290, 2-(3-Acetylamino-pyrrolidin-1-yl)-N-(4-cyclohexyl-phenyl)-acetamide] | > 5000 | > 5000 | > 5000 | 38 | 101 | 105 to 110 | 19 |  |  |  | 
Cl.N#CC(c1ccccc1)C1CCN(CC(=O)Nc2ccc(C3CCCCC3)cc2)CC1 (stereo not drawn) [Compound 300, 2-[4-(Cyano-phenyl-methyl)-piperidin-1-yl]-N-(4-cyclohexyl-phenyl)-acetamide; hydrochloride] | > 5000 | > 5000 | > 5000 | 13 | 90 | 150 | 13 |  |  |  | 
CC(=O)NCC1(c2ccccc2)CCN(CC(=O)Nc2ccc(C3CCCCC3)cc2)CC1.O=C(O)C(=O)O [Compound 301, 2-[4-(Acetylamino-methyl)-4-phenyl-piperidin-1-yl]-N-(4-cyclohexyl-phenyl)-acetamide; compound with oxalic acid] | > 5000 | > 5000 | > 5000 |  | 101 | 146 |  | 32 | 32 |  | 
CCNC1(C(N)=O)CCN(CC(=O)Nc2ccc(C3CCCCC3)cc2)CC1.O=C(O)C(=O)O [Compound 302, 1-[(4-Cyclohexyl-phenylcarbamoyl)-methyl]-4-ethylamino-piperidine-4-carboxylic acid amide; compound with oxalic acid] | > 5000 | > 5000 | > 5000 | 6 | 107 | 184 | 6 |  |  |  | 
CCC(=O)C1(c2ccccc2)CCN(CC(=O)Nc2ccc(C3CCCCC3)cc2)CC1.Cl [Compound 303, N-(4-Cyclohexyl-phenyl)-2-(4-phenyl-4-propionyl-piperidin-1-yl)-acetamide; hydrochloride] |  | > 5000 |  | 4 | 93 | 252 |  |  | 6 | > 5000 | > 5000
CC(=O)NC1CCN(CC(=O)Nc2ccc(C(=O)c3ccccc3)cc2)C1.O=C(O)C(=O)O (stereo not drawn) [Compound 304, 2-(3-Acetylamino-pyrrolidin-1-yl)-N-(4-benzoyl-phenyl)-acetamide; compound with oxalic acid] | > 5000 | > 5000 | > 5000 | 150 | 85 | 100 | 180 |  |  |  | 
